Experimental data: patent US20100041613A1, “NOVEL ANTIBIOTIC COMPOSITIONS” (priority 2006, published 2010)
Values after ≈ are worked out from the molar mass of the structure shown.

Key:
[1] = tested on: vancomycin resistant Enterococcus faecalis (VRE) ATCC#51575; experiment: organism not typed; format: cell-based
Procedure: (§1) Antibiotic compositions of the invention were tested for antimicrobial activity against methicillin resistant Staphylococcus aureus (MRSA) ATCC#33591 and vancomycin resistant Enterococcus faecalis (VRE) ATCC#51575. Pathogen cultures were grown in tryptic soya broth (TSB) with 5 g/L NaCl (TSB+) overnight (˜18 hrs) at 37° C. The cultures were removed from the incubator and refrigerated at least 3 hours to stop further culture growth. Determined aliquot ratios of culture to broth to obtain approximately 2.5×10^5 CFU/ml., for which accurate counts were measured by serial dilution onto Tryptic Soy Agar with 5 g/L NaCl (TSA+) plates. Two fold dilution series' of […] were prepared for MRSA and VRE, respectively. All components except thiazolyl blue tetrazolium bromide (MTT) were added to the wells prior to an initial overnight incubation at 37° C. MTT was added to each well, 29 μl or […], for MRSA or VRE plates, respectively, followed by 1 hour incubation at 37° C. Vancomycin and/or Zyvoxam were included as reference compounds with vancomycin prepared in the same way as the test compounds. Zyvoxam was supplied as a 2 mg/ml solution. Minimum inhibitory concentration (MIC) endpoints were read as the lowest concentration showing no visible growth.

[2] = tested on: methicillin resistant Staphylococcus aureus (MRSA) ATCC#33591; experiment: microbe, parasite or virus in culture; format: cell-based
Procedure: as §1

[3] = VRE, lowest concentration showing no visible growth, overnight incubation at 37° C.
[4] = MRSA, lowest concentration showing no visible growth, overnight incubation at 37° C.

Molecule: C=C1NC(=O)[C@H]([C@@H](C)CC)NC(=O)[C@H](NC(=O)C(=CC)NC(=O)[C@@H](N)[C@@H](C)CC)CSC[C@@H](C(=O)N[C@H]2C(=O)N3CCC[C@H]3C(=O)NCC(=O)N[C@H](C(=O)N[C@@H](CCCCN)C(=O)NCCCCCCNC(=O)[C@H]3NC(=O)[C@H]4NC(=O)[C@H](NC(=O)[C@@H]5NC(=O)[C@H](CC(N)=O)NC(=O)[C@H](NC(=O)[C@@H](CC(C)C)NC)[C@H](O)c6ccc(c(Cl)c6)Oc6cc5cc(c6O[C@@H]5O[C@H](CO)[C@@H](O)[C@H](O)[C@H]5O[C@H]5C[C@](C)(N)[C@H](O)[C@H](C)O5)Oc5ccc(cc5Cl)[C@H]4O)c4ccc(O)c(c4)-c4c(O)cc(O)cc43)CSC2C)NC(=O)[C@H](CC(C)C)NC1=O (stereo partly shown) [Example 2, nisin(1-12)-1,6-diaminohexane-vancomycin]
- minimum inhibitory concentration against VRE ([1]; vancomycin resistant (VRE) ATCC#51575, 18 h): 20 µg/mL (≈ 7.46 µM)
- minimum inhibitory concentration against MRSA ([2]; methicillin resistant ATCC#33591, 18 h): 0.04 µg/mL (≈ 0.0149 µM)

Molecule: CC(=O)NC[C@H]1CN(c2ccc(N3CCOCC3)c(F)c2)C(=O)O1 [zyvoxam]
- minimum inhibitory concentration against VRE [1, 3]: 1.2 µg/mL (≈ 3.56 µM)
- minimum inhibitory concentration against MRSA [2, 4]: 0.3 µg/mL (≈ 0.889 µM)

Molecule: CN[C@H](CC(C)C)C(=O)N[C@H]1C(=O)N[C@@H](CC(N)=O)C(=O)N[C@H]2C(=O)N[C@H]3C(=O)N[C@H](C(=O)N[C@H](C(=O)O)c4cc(O)cc(O)c4-c4cc3ccc4O)[C@H](O)c3ccc(c(Cl)c3)Oc3cc2cc(c3O[C@@H]2O[C@H](CO)[C@@H](O)[C@H](O)[C@H]2O[C@H]2C[C@](C)(N)[C@H](O)[C@H](C)O2)Oc2ccc(cc2Cl)[C@H]1O [vancomycin]
- MIC ([1]; read-out: minimum inhibitory concentration against VRE): 500 µg/mL (≈ 345 µM)
- MIC ([2]; Staphylococcus aureus, read-out: minimum inhibitory concentration against MRSA): 1.2 µg/mL (≈ 0.828 µM)

Molecule: Nisin[1-12] polypeptide fragment
- highest concentration at which VRE was not inhibited ([1]; VRE, did not inhibit at as high as the stated concentration): > 40 µg/mL
- highest concentration at which MRSA was not inhibited ([2]; MRSA, did not inhibit at as high as the stated concentration): > 10 µg/mL

Molecule: nisin
- minimum inhibitory concentration against VRE [1, 3]: 5 to 10 µg/mL
- minimum inhibitory concentration against MRSA [2, 4]: 0.3 to 0.6 µg/mL
